Data from article PMC5069460, “A novel gene cluster allows preferential utilization of fucosylated milk oligosaccharides in Bifidobacterium longum subsp. longum SC596” (Scientific Reports, 2016).

What was measured:
Test in all cases: glycan array (CFG Mammalian Glycan Array v5.[…]), anti-GST Alexa […]
Type in all cases: binding
Conditions in all cases: glycan immobilised via spacer; protein 200 ug/ml; pH 7.4, 150 mM NaCl, 2 mM CaCl2, 2 mM MgCl2
[1] = target: T1, BLNG_01257 (SBP of FHMO cluster) (Bifidobacterium longum, UniProt A0A0M3T5K2)
T1 construct: tag kept for detection; homolog of Blon_0343 and Blon_2202
T1 sequence (A0A0M3T5K2 23-460 limits assumed): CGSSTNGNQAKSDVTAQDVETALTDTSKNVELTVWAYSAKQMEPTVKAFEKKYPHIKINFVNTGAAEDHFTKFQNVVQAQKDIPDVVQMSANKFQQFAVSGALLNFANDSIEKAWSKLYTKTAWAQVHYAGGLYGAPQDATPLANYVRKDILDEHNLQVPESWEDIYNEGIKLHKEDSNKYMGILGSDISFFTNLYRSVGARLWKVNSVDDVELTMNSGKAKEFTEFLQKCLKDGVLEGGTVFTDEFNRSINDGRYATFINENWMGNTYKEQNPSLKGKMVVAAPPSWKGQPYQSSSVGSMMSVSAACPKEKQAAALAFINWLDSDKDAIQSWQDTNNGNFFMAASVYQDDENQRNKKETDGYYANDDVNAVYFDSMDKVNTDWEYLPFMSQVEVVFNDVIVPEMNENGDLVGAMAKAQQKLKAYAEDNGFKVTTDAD

[2] = target: T2, BLNG_00160 (SBP of LNB/GNB cluster) (Bifidobacterium longum, UniProt Q8G3W5)
T2 construct: gene BL1638; tag kept for detection
T2 sequence (Q8G3W5 24-438): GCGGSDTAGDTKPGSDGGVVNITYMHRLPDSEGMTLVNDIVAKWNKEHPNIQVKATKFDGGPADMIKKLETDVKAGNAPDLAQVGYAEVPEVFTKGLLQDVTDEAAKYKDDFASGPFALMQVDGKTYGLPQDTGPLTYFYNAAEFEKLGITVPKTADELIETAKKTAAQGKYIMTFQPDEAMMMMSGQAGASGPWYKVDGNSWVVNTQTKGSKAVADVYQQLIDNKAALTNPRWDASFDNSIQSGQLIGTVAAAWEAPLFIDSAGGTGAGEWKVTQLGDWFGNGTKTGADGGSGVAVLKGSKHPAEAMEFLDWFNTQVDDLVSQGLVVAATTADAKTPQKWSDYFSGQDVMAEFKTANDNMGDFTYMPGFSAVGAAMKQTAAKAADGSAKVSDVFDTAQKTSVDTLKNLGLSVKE

BLNG_00936 (SBP) = target: T3, BLNG_00936 (SBP) (Bifidobacterium longum, UniProt Q8G848)
T3 construct: gene fruE; tag kept for detection
T3 sequence (Q8G848 23-327 limits assumed): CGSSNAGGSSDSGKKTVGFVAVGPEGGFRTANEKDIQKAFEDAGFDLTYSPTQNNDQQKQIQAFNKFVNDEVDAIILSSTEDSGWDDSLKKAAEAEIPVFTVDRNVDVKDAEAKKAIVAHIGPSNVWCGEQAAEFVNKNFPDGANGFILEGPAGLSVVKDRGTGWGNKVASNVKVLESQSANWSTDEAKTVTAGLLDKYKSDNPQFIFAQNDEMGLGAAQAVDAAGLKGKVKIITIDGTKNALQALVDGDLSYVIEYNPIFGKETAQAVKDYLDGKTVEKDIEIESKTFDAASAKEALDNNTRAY

C[C@@H]1O[C@@H](O[C@H]2C(O)O[C@H](CO)[C@H](O)[C@@H]2O)[C@@H](O)[C@H](O)[C@@H]1O (stereo partly shown) [Fuca1-2Galβ-Sp8]
Average RFU^b [1]: 2161 RFU

CC(=O)N[C@H]1[C@H](OCCCN)O[C@H](COS(=O)(=O)O)[C@@H](O)[C@@H]1O[C@@H]1O[C@H](CO)[C@H](O)[C@H](O)[C@H]1O [Galβ1-3(6S)GlcNAcβ-Sp8]
Average RFU^b [2]: 2646 RFU

CC(=O)N[C@H]1[C@H](O[C@@H]2[C@H](O)[C@@H](O)[C@H](O[C@H]3[C@H](O)[C@@H](O)[C@H](OCCCN)O[C@@H]3CO)O[C@@H]2CO)O[C@H](CO)[C@H](O)[C@@H]1O[C@@H]1O[C@H](CO)[C@H](O)[C@H](O)[C@H]1O [Galβ1-3GalNAcβ1-4Galβ1-4Glcβ-Sp8]
Average RFU^b [2]: 3430 RFU

CC(=O)N[C@H]1[C@H](OCCCN)O[C@H](CO)[C@@H](O[C@@H]2O[C@H](CO)[C@H](O)[C@H](O[C@@H]3O[C@H](CO)[C@H](O)[C@H](O)[C@H]3O)[C@H]2O)[C@@H]1O [Galβ1-3Galβ1-4GlcNAcβ-Sp8]
Average RFU^b [2]: 4654 RFU | Average RFU^b (BLNG_00936 (SBP)): 126 RFU

CC(=O)N[C@H]1[C@H](OCCN)O[C@H](CO)[C@@H](O[C@@H]2O[C@H](CO)[C@H](O)[C@H](O[C@@H]3O[C@H](CO)[C@@H](O)[C@H](O[C@@H]4O[C@H](CO)[C@H](O)[C@H](O)[C@H]4O)[C@H]3NC(C)=O)[C@H]2O)[C@@H]1O [Galβ1-3GlcNAcβ1-3Galβ1-4GlcNAcβ-Sp0]
Average RFU^b [2]: 2029 RFU

CC(=O)N[C@H]1[C@H](OCCN)O[C@H](CO)[C@@H](O)[C@@H]1O[C@@H]1O[C@H](CO)[C@H](O)[C@H](O)[C@H]1O [Galβ1-3GlcNAcβ-Sp0]
Average RFU^b [2]: 969 RFU

Fuca1-2Galβ1-4Glcβ-Sp0
Average RFU^b [1]: 360 RFU

Galβ1-3GalNAcβ1-3Gal-Sp21
Average RFU^b [2]: 2528 RFU

Galβ1-3GlcNAcβ1-3Galβ1-4Glcβ-Sp10
Average RFU^b [2]: 1784 RFU
